Experimental data reported in patent US8658564B2, “Fungicide active ingredient combinations” (Bayer Cropscience AG, priority 2007, dated 2014).

Key:
[1] = tested on: Rhizoctonia solani; experiment: Rhizoctonia solani test (in vitro)/microtitre plates; format: cell-based; conditions: 120 h, application rate 0.1 ppm, 5 days incubation, PDB medium, read-out: % efficacy
Method: Rhizoctonia solani Test (In Vitro)/Microtitre Plates The microtest is carried out in microtitre plates using Potato Dextrose Broth (PDB) as liquid test medium. The active compounds are used as technical-grade a.i., dissolved in methanol. For inoculation, a mycelium suspension of Rhizoctonia solani is used. After 5 days of incubation in the dark and with shaking (10 Hz), the transparency of each filled cavity of the microtitre plates is determined with the aid of a spectrophotometer. Here, 0% means an efficacy which corresponds to the growth in the controls, whereas an efficacy of 100% means that no fungal growth is observed.

[2] = tested on: Leptosphaeria nodorum; experiment: Leptosphaeria nodorum test (wheat)/protective; format: in vivo, Leptosphaeria nodorum on wheat; conditions: evaluation 10 days after inoculation
Method: Leptosphaeria nodorum Test (Wheat)/Protective • Solvent: 50 parts by weight of N,N-dimethylacetamide • Emulsifier: 1 part by weight of alkylaryl polyglycol ether To produce a suitable preparation of active compound, 1 part by weight of active compound is mixed with the stated amounts of solvent and emulsifier, and the concentrate is diluted with water to the desired concentration. To test for protective activity, young plants are sprayed with the active compound preparation at the stated application rate. After the spray coating has dried on, the plants are sprayed with a spore suspension of Leptosphaeria nodorum. The plants remain in an incubation cabin at 20° C. and 100% relative atmospheric humidity for 48 hours. The plants are placed in a greenhouse at a temperature of about 20° C. and a relative atmospheric humidity of 80%. Evaluation is carried out 10 days after the inoculation. Here, 0% means an efficacy which corresponds to that of the control, whereas an efficacy of 100% means that no infection is observed.

[3] = tested on: Pyrenophora teres; experiment: Pyrenophora teres test (barley)/protective; format: in vivo, Pyrenophora teres on barley; conditions: 62.5 g/ha; evaluation 10 days after inoculation
Method: Pyrenophora teres Test (Barley)/Protective • Solvent: 50 parts by weight of N,N-dimethylacetamide • Emulsifier: 1 part by weight of alkylaryl polyglycol ether To produce a suitable preparation of active compound, 1 part by weight of active compound or active compound combination is mixed with the stated amounts of solvent and emulsifier, and the concentrate is diluted with water to the desired concentration, or a commercial formulation of active compound or active compound combination is diluted with water to the desired concentration. To test for protective activity, young plants are sprayed with the active compound preparation at the stated application rate. After the spray coating has dried on, the plants are sprayed with a conidia suspension of Pyrenophora teres. The plants remain in an incubation cabin at 20° C. and 100% relative atmospheric humidity for 48 hours. The plants are then placed in a greenhouse at a temperature of about 20° C. and a relative atmospheric humidity of about 80%. Evaluation is carried out 10 days after the inoculation. Here, 0% means an efficacy which corresponds to that of the control, whereas an efficacy of 100% means that no infection is observed.

CC(C)(C)C(O)(CCc1ccc(Cl)cc1)Cn1cncn1 (racemic) [Tebuconazole, (RS)-1-p-chlorophenyl-4,4-dimethyl-3-(1H-1,2,4-triazol-1-ylmethyl)-pentan-3-ol]
Emax at 0.1 ppm [1]: 13% | Efficacy in % found ([2]; 62.5 g/ha): 56%

Cc1nn(C)c(F)c1C(=O)Nc1ccccc1C(C)CC(C)C (stereo not shown) [(I), N-[2-(1,3-Dimethylbutyl)phenyl]-5-fluoro-1,3-dimethyl-1H-pyrazole-4-carboxamide]
Efficacy in % found ([2]; 62.5 g/ha): 0% | Efficacy in % found [3]: 67%

OC(Cc1ccccc1Cl)(Cn1nc[nH]c1=S)C1(Cl)CC1 (stereo not shown) [(II) Prothioconazole, prothioconazole]
Efficacy in % found [3]: 44%

COCC(=O)N(c1c(C)cccc1C)C(C)C(=O)OC (stereo not shown) [(III) Metalaxyl, metalaxyl]
Efficacy in % found ([2]; 125 g/ha): 11% | Efficacy in % found [3]: 0%
